# Test results reported in ChEMBL document CHEMBL5030563, “Structure-Based Design of Dual-Acting Compounds Targeting Adenosine A2A Receptor and Histone Deacetylase as Novel Tumor Immunotherapeutic Agents” (J Med Chem, 2021).
# Assays:
# Adenosine receptor A2a = Adenosine receptor A2a (Homo sapiens, UniProt P29274); test: Displacement of [3H]SCH58261 from adenosine A2A receptor membrane (unknown origin) measured after 60 mins by scintillation counting analysis; type: cell membranes
# Histone deacetylase 1 = Histone deacetylase 1 (Homo sapiens, UniProt Q13547); test: Inhibition of HDAC1 (unknown origin) assessed as release of 7-amino-4-methylcoumarin incubated in room temperature for 15 min measured by Spectra max microtitre plate reader
# Chain of Histone deacetylase 1 (Q13547 whole entry): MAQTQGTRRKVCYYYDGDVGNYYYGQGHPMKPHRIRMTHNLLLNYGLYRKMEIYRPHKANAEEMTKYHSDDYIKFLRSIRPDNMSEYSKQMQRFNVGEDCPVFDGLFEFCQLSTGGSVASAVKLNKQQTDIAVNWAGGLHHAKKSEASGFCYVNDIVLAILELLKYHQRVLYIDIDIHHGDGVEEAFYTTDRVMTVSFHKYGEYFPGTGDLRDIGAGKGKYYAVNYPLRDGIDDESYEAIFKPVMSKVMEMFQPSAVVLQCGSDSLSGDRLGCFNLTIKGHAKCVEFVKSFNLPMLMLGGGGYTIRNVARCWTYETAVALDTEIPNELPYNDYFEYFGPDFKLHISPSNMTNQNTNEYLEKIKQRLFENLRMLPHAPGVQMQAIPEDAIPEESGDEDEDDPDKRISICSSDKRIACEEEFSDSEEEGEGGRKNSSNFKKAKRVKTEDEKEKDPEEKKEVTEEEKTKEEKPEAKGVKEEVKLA
# [1] = target: T1, Protein deacetylase HDAC6 (Homo sapiens, UniProt Q9UBN7); test: Inhibition of HDAC6 (unknown origin) assessed as release of 7-amino-4-methylcoumarin incubated in room temperature for 15 min measured by Spectra max microtitre plate reader
# T1 sequence (Q9UBN7 whole entry): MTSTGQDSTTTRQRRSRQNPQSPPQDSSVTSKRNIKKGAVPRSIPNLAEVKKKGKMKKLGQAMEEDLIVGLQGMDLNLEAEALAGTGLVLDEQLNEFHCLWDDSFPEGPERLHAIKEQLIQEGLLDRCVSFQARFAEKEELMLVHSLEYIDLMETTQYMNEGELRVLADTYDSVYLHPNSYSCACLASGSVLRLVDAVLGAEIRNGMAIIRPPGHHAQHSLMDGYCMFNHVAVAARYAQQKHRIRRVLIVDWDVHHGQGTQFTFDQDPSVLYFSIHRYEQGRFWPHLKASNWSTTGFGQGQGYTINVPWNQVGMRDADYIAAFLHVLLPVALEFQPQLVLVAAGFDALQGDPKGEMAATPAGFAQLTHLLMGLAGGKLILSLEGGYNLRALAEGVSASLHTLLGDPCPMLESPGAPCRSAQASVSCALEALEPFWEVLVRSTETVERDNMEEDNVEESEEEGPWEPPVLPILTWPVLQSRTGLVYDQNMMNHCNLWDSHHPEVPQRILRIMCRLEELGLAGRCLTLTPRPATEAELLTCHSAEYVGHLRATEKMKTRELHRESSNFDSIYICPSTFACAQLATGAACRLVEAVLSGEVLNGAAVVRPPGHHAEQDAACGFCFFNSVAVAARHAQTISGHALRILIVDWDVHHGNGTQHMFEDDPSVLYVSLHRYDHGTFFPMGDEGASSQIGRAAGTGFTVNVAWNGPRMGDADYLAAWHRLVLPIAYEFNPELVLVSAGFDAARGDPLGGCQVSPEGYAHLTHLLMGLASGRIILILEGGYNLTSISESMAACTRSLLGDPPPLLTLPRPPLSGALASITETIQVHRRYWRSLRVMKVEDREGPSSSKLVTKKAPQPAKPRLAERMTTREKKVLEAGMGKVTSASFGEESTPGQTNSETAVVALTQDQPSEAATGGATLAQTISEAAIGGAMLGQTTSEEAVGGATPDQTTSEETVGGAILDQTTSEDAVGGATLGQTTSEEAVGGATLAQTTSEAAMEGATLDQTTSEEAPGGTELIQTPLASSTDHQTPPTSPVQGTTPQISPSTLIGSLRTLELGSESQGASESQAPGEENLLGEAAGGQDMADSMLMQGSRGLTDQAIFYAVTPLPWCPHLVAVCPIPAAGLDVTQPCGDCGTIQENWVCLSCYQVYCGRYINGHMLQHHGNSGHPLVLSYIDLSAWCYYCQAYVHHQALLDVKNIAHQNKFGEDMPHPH
# CT26 = test: Antiproliferative activity against mouse CT26 cells measured after 72 hrs by CCK8 assay; type: functional
# MC-38 = test: Antiproliferative activity against mouse MC38 cells measured after 72 hrs by CCK8 assay; type: functional
# Chain of Adenosine receptor A2a (P29274 whole entry): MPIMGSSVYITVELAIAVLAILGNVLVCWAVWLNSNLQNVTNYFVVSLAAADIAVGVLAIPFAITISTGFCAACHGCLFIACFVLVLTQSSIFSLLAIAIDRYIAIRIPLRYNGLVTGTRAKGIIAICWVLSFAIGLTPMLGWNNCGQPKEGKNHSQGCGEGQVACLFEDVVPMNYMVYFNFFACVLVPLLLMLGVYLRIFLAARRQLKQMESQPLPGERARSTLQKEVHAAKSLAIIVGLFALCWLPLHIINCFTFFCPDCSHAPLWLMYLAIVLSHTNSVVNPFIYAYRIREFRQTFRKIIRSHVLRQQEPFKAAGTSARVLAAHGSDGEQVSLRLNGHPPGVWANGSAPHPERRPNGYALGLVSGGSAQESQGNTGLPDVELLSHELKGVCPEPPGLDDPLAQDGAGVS
Ki (Adenosine receptor A2a),IC50 (Histone deacetylase 1),IC50 [1],"GI50 (CT26; Mus musculus, CT26)",GI50 (CT26),Structure (SMILES),"GI50 (MC-38; Mus musculus, MC-38)",GI50 (MC-38)
15.7 nM,21.5 nM,18 nM,> 100000 nM,,CN(CCOc1ccc(C(=O)NO)cc1)c1nc(N)n2nc(-c3ccco3)nc2n1,> 100000 nM,
10.1 nM,2680 nM,,,,Nc1cc(F)ccc1NC(=O)c1ccc(CCCn2ncc3c2nc(N)n2nc(-c4ccco4)nc32)cc1,,
6.3 nM,104 nM,14.8 nM,> 100000 nM,,Nc1nc(NCCc2ccc(C(=O)NO)cc2)nc2nc(-c3ccco3)nn12,> 100000 nM,
4.4 nM,159 nM,17.4 nM,75100 nM,,CN(CCc1ccc(C(=O)NO)cc1)c1nc(N)n2nc(-c3ccco3)nc2n1,69200 nM,
,,,1800 nM,,Nc1ccccc1NC(=O)c1ccc(CNc2nccc(-c3cccnc3)n2)cc1 [MOCETINOSTAT],21000 nM,
43.7 nM,279 nM,,8800 nM,,Nc1ccccc1NC(=O)c1ccc(OCCn2ncc3c2nc(N)n2nc(-c4ccco4)nc32)cc1,7100 nM,
4.2 nM,220 nM,19 nM,> 100000 nM,,Nc1nc(N2CCN(CCc3ccc(C(=O)NO)cc3)CC2)nc2nc(-c3ccco3)nn12,> 100000 nM,
6 nM,108 nM,132 nM,,,Nc1nc(NCCc2ccc(OCCCC(=O)NO)cc2)nc2nc(-c3ccco3)nn12,,
,> 10000 nM,> 1000 nM,,,Nc1nc(NCCc2ccc(O)cc2)nc2nc(-c3ccco3)nn12 [ZM-241385],,
84.8 nM,21.5 nM,3 nM,,,Nc1nc(NCc2ccc(C(=O)NO)cc2)nc2nc(-c3ccco3)nn12,,
86.9 nM,53 nM,> 10000 nM,,,Nc1ccccc1NC(=O)c1ccc(Cn2ncc3c2nc(N)n2nc(-c4ccco4)nc32)cc1,,
19.9 nM,162 nM,35 nM,,,Nc1nc(NCc2ccc(OCCCCC(=O)NO)cc2)nc2nc(-c3ccco3)nn12,,
2 nM,81 nM,16 nM,,,Nc1nc2c(cnn2CCc2ccc(OCCCCCC(=O)NO)cc2)c2nc(-c3ccco3)nn12,,
2.8 nM,228 nM,,11200 nM,,Nc1cc(F)ccc1NC(=O)c1ccc(CCn2ncc3c2nc(N)n2nc(-c4ccco4)nc32)cc1,10800 nM,
,,,,2700 nM,O=C(CCCCCCC(=O)Nc1ccccc1)NO [VORINOSTAT],,2400 nM
18.5 nM,126 nM,,> 100000 nM,,Cc1ccc(-c2nc3c4cnn(CCc5ccc(C(=O)Nc6ccccc6N)cc5)c4nc(N)n3n2)o1,> 100000 nM,
37.8 nM,10.2 nM,69 nM,42900 nM,,Nc1nc(NCCc2ccc(/C=C/C(=O)NO)cc2)nc2nc(-c3ccco3)nn12,40500 nM,
3.3 nM,203 nM,,> 100000 nM,,Nc1ccccc1NC(=O)c1ccc(CCCn2ncc3c2nc(N)n2nc(-c4ccco4)nc32)cc1,> 100000 nM,
4.3 nM,138 nM,7.6 nM,100000 nM,,Nc1nc2c(cnn2CCc2ccc(C(=O)NO)cc2)c2nc(-c3ccco3)nn12,100000 nM,
5.6 nM,399 nM,80 nM,,,Nc1nc2c(cnn2CCN2CCc3ccc(C(=O)NO)cc3C2)c2nc(-c3ccco3)nn12,,
0.87 nM,90 nM,,> 100000 nM,,Nc1ccccc1NC(=O)c1ccc(CCn2ccc3c2nc(N)n2nc(-c4ccco4)nc32)cc1,> 100000 nM,
60.4 nM,> 10000 nM,,,,Nc1nc2c(cnn2CCN2Cc3ccc(C(=O)NO)cc3C2)c2nc(-c3ccco3)nn12,,
2.4 nM,175 nM,22 nM,,,CCN(CCc1ccc(C(=O)NO)cc1)c1nc(N)n2nc(-c3ccco3)nc2n1,,
82.8 nM,486 nM,74 nM,,,Nc1nc2c(cnn2CCCCC(=O)NO)c2nc(-c3ccco3)nn12,,
5.8 nM,102 nM,37 nM,,,Nc1nc(NCCc2ccc(OCCCCC(=O)NO)cc2)nc2nc(-c3ccco3)nn12,,
